Each structure is given as a SMILES string. Calls of active or inactive are those of the source. The calls are words filed in the database; no cut-off is given here.

This note sets out measurements from ChEMBL document CHEMBL4400506, “8-Hydroxy-2-(1H-1,2,3-triazol-1-yl)-1,4-naphtoquinone derivatives inhibited P2X7 Receptor-Induced dye uptake into murine Macrophages” (Bioorg Med Chem, 2019).

Data set [1] can be described thus: Intrinsic clearance in mouse liver microsomes assessed per mg protein at 1 uM measured in presence of NADPH. As to conditions: read-out: CLH. The class given is ADME, Microsome. (Liver microsomes are vesicles of endoplasmic reticulum, rich in cytochrome P450 enzymes.)
In data set [2] the target is T1, P2X purinoceptor 7 (Mus musculus) (UniProt Q9Z1M0).
T1 sequence (whole entry): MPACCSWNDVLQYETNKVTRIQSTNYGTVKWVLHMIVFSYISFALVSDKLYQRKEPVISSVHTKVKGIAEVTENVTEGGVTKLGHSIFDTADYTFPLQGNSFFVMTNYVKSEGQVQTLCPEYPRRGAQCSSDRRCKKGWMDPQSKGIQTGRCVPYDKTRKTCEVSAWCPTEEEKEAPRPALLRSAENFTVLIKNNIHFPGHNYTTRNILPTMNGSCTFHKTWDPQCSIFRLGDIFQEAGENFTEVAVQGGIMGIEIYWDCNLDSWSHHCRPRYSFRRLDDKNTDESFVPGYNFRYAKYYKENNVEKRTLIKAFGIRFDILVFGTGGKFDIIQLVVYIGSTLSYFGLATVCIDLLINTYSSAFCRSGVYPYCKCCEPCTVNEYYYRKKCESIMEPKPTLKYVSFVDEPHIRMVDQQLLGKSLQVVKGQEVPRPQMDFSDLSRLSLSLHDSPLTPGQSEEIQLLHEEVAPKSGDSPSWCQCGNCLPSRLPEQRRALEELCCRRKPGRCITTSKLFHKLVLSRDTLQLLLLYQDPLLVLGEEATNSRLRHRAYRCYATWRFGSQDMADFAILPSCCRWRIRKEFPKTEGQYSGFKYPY
The data set is described as follows: Antagonist activity at P2X7R in Swiss Webster mouse peritoneal macrophages assessed as inhibition of propidium iodide uptake preincubated for 10 mins propidium iodide addition measured after 5 mins by fluorescence microscopic analysis.

Data set [3] is described as follows: Intrinsic clearance in human liver microsomes assessed per mg protein at 1 uM measured in presence of NADPH. The class given is ADME, Microsome. As to conditions: read-out: CLH.
The target in data set [4] is T1, P2X purinoceptor 7 (Mus musculus). The data set is described as follows: Antagonist activity at P2X7R in Swiss Webster mouse peritoneal macrophages assessed as inhibition of ATP-induced propidium iodide uptake preincubated for 10 mins followed by ATP induction for 25 mins and subsequent propidium iodide addition for last 5 mins by fluorescence microscopic analysis.

The nature of data set [5]: Octanol-PBS distribution co-efficient, log D of the compound at 25 mM at pH 7.4 after 2 hrs by shake flask method. The class given is physicochemical.
Data set [6] in a line: Apparent permeability across apical to basolateral side in human Caco2 cells at 100 uM measured after 60 mins by lucifer yellow staining based fluorescence assay. The class given is ADME, cell-based. As to conditions: Caco-2. On the technique in general: Caco-2 monolayers are a common model of the intestinal barrier.
For data set [7], the target named is T2, P2X purinoceptor 7 (Homo sapiens, UniProt Q99572).
T2 sequence (Q99572 whole entry): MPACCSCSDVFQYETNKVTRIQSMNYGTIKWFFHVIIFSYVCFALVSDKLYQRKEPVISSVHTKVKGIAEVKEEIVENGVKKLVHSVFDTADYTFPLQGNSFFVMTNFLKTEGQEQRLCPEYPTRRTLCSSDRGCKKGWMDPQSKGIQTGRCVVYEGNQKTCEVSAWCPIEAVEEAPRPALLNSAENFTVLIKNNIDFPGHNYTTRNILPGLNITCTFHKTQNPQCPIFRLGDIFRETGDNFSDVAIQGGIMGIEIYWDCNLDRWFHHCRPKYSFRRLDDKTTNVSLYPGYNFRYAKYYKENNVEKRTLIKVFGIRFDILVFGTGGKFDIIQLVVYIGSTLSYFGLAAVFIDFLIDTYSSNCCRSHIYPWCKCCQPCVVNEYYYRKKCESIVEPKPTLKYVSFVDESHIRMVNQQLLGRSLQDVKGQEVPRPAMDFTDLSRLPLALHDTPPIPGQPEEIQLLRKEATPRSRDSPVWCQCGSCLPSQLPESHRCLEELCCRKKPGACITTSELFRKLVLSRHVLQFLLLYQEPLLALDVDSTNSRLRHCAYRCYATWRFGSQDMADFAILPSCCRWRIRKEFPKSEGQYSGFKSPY
The data set is described as follows: Antagonist activity at human P2X7R expressed in HEK293 cells assessed as inhibition of ATP-induced […] uptake preincubated for 5 mins followed by ATP induction and measured after 25 mins by fluorescence assay. The class given is cell-based.

In data set [8] the test system is Peritoneal macrophage. In words: Cytotoxicity against Swiss Webster mouse peritoneal macrophages assessed as plasma membrane disruption at 100 uM measured after 24 hrs by dextran rhodamine dye based fluorescence assay. The class given is cell-based.

The term logD denotes lipophilicity at a set pH, counting ionised and neutral species. A low value points to lower lipophilicity. By Papp A→B is commonly meant the apparent permeability from the apical to the basolateral side of a cell layer. Usually IC50 stands for the midpoint of a concentration-inhibition curve. As for `CCCCc1cn(C2=CC(=O)c3cccc(O)c3C2=O)nn1`, the microsomal CLint at 1 µM was found to be 40.6 µL/min/mg in data set [1] and 46.1 µL/min/mg in data set [3]. Further, the inhibition entry in data set [2] is “inactive”. Further, the inhibition result in data set [4] was “Active”. For the same compound, the logD at 2 h, 25000 µM in data set [5] was -1.24. Further, the Papp A→B at 1 h, 100 µM in data set [6] worked out at 71.8 ×10⁻⁶ cm/s. Besides, in data set [7], the IC50 is 230 nM. In addition, the Activity result in data set [8] is recorded as “Non-Toxic”.

For `COc1ccc(CC(=O)NC(N/C(=N/C#N)Nc2cccc3ncccc23)C(C)(C)C)cc1OC` (stereo unspecified), in data set [2], the inhibition result was “inactive”. Also, in data set [4], the inhibition result was “Active”. In addition, the IC50 in data set [7] stood at 750 nM. For the same compound, the Activity result in data set [8] was “Non-Toxic”.

As for `CC(C)CC(C)(O)c1cn(C2=CC(=O)c3cccc(O)c3C2=O)nn1` (stereo unspecified), the inhibition entry in data set [2] and in data set [4] was “inactive” in each case. Moreover, the Activity entry in data set [8] was “Non-Toxic”.

For the compound `CCC(C)(O)c1cn(C2=CC(=O)c3cccc(O)c3C2=O)nn1` (stereo unspecified), the inhibition entry in data set [2] and in data set [4] was “inactive” throughout. In addition, the Activity result in data set [8] is recorded as “Non-Toxic”.

With `O=C1C=C(n2cc(-c3ccccc3)nn2)C(=O)c2c(O)cccc21`, the inhibition result in data set [2] and in data set [4] was “inactive” each time. Also, in data set [8], the Activity entry was “Toxic”.

With `CCOc1ccc(Nc2ccc(/C(=C3C=C/C(=[N+](/CC)Cc4cccc(S(=O)(=O)[O-])c4)C=C/3C)c3ccc(N(CC)Cc4cccc(S(=O)(=O)[O-])c4)cc3C)cc2)cc1.[Na+]` [BRILLIANT BLUE G], the inhibition entry in data set [2] is “inactive”. For the same compound, the inhibition result in data set [4] is “Active”. Further, the IC50 in data set [7] came to 1370 nM. Besides, the Activity result in data set [8] is on record as “Non-Toxic”.

On to `CCCc1cn(C2=CC(=O)c3cccc(O)c3C2=O)nn1`, for which the inhibition entry in data set [2] and in data set [4] was “inactive” throughout. Moreover, the Activity entry in data set [8] is “Toxic”.

On to `O=C1C=C(n2cc(CCCCl)nn2)C(=O)c2c(O)cccc21`, for which the microsomal CLint at 1 µM stood at 3.1 µL/min/mg in data set [1] and 1.2 µL/min/mg in data set [3]. Further, in data set [2], the inhibition result was “inactive”. Further, the inhibition entry in data set [4] was “Active”. For the same compound, the logD at 2 h, 25000 µM in data set [5] was -0.42. The Papp A→B at 1 h, 100 µM in data set [6] turned out to be 41.6 ×10⁻⁶ cm/s. Further, in data set [7], the IC50 turned out to be 103 nM. For the same compound, in data set [8], the Activity entry is “Non-Toxic”.
